Patent publication US20240183843A1, “METHOD FOR EVALUATING EXCRETION OF SUBSTANCE OF INTEREST BY HUMAN HEPATOCYTE-LIKE CELL” (JSR Corporation, priority 2020, published 2024)

Key:
MRP2 = target: T1, MRP2 (Homo sapiens, UniProt Q92887); experiment: CDFDA excretion of present evaluation model, microscopy; format: in vitro ADME; conditions: CDFDA 2 μM, 5 µM, or 10 µM, 37°C, 30 min, 5% CO2; FIG. 5
T1 construct: host or cells: human hepatocyte-like cells (sac-like material) cultured from human primary hepatocytes
Method: (§1) The culture of human liver cells after the subculturing in Experimental Example 1, the culture medium in Table 1, and 2% by volume of Matrigel with respect to the culture medium were added to a 6-well culture plate (manufactured by Sumitomo Bakelite Co., Ltd., MS-8006R), followed by the suspension culture at 37° ° C. for 3 days in the presence of 5% by volume of CO2 to form a sac-like material.
In Experimental Example 2, 2 μM, 5 µM, or 10 µM of carboxydichlorofluorescein diacetate (CDFDA), which is a substrate of MRP2, was added to the culture solution after the suspension culture. The incorporation of the CDFDA into the inner cavity of the present evaluation model was carried out at 37 °C for 30 min in the presence of 5% by volume of CO2. A culture solution containing the present evaluation model was placed in a low-adsorption 15 ml tube by pipetting, followed by centrifugation.

P-glycoprotein (P-gp) [1] = target: T2, P-glycoprotein (P-gp) (Homo sapiens, UniProt P08183)
Method: Rho123 (10 μM) was added to the culture solution containing the culture embedded in Matrigel after the culturing prepared in Experimental Example 1, and the incorporation of the Rho123 into the inner cavity of the culture was carried out at 37° C. for 30 min in the presence of 5% by volume of CO2.
The polymerized Matrigel was degraded by pipetting and enzymatic treatment (Corning (registered trade name) Cell Recovery Solution) in order to measure the amount of the incorporated Rho123.

P-glycoprotein (P-gp) [2] = target: T2, P-glycoprotein (P-gp); experiment: Rho123 excretion of present evaluation model (sac-like material, suspension culture), fluorescence microscopy; format: in vitro ADME; parameters: In the obtained culture, an inner cavity due to the membrane of the human hepatocyte-like cell was formed; host or cells: human hepatocyte-like cells (organoid or sac-like material) cultured from human primary hepatocytes; conditions: Rho123 10 μM, 37°C, 30 min, 5% CO2; sac-like material of human hepatocyte-like cells, 2% by volume Matrigel suspension culture; FIG. 2A/2B
Method: as §1
(§2) In Experimental Example 2, Rho123 (10 μM), which is a substrate for P-glycoprotein (P-gp), was added to the culture solution after the suspension culture. The incorporation of the Rho123 into the inner cavity of the present evaluation model was carried out at 37 °C for 30 min in the presence of 5% by volume of CO2. A culture solution containing the present evaluation model was placed in a low-adsorption 15 mL tube by pipetting, followed by centrifugation.

P-glycoprotein (P-gp) [3] = target: T2, P-glycoprotein (P-gp); experiment: Quantification of Rho123 incorporated into inner cavity of present evaluation model by LC/MS; format: in vitro ADME; parameters: In the obtained culture, an inner cavity due to the membrane of the human hepatocyte-like cell was formed; host or cells: human hepatocyte-like cells (organoid or sac-like material) cultured from human primary hepatocytes; conditions: Rho123 10 μM in culture solution, 37°C, 30 min
Method: as §1, §2
The present evaluation model of Experimental Example 3, into which Rho123 had been incorporated, was mixed with methanol to kill the human hepatocyte-like cells. After mixing, centrifugation was carried out to extract the supernatant. The supernatant was subjected to analysis by a liquid chromatography-mass spectrometer (LC/MS) (manufactured by SHIMADZU CORPORATION, LCMSTM-8040), and from the concentration and amount of the Rho123 incorporated into the inner cavity and the concentration of the Rho123 in the culture solution, the proportion of the present evaluation model transported into the inner cavity was calculated.
• Column: Xbridge C18 3.5 μm, 2.1 mm×50 mm • Column temperature: 40° ° C. • Internal standard substance: Tolbutamine • Elution solvent: A solution (a 0.1% by mass formic acid solution), B solution (acetonitrile) • Gradient conditions: see Table 2 • Runtime: 7 minutes • Flow rate: 0.4 mL/min • Injection volume: 3 μL
• Mode: Positive (*the standard substance is in a negative mode)

T2 sequence (P08183 whole entry): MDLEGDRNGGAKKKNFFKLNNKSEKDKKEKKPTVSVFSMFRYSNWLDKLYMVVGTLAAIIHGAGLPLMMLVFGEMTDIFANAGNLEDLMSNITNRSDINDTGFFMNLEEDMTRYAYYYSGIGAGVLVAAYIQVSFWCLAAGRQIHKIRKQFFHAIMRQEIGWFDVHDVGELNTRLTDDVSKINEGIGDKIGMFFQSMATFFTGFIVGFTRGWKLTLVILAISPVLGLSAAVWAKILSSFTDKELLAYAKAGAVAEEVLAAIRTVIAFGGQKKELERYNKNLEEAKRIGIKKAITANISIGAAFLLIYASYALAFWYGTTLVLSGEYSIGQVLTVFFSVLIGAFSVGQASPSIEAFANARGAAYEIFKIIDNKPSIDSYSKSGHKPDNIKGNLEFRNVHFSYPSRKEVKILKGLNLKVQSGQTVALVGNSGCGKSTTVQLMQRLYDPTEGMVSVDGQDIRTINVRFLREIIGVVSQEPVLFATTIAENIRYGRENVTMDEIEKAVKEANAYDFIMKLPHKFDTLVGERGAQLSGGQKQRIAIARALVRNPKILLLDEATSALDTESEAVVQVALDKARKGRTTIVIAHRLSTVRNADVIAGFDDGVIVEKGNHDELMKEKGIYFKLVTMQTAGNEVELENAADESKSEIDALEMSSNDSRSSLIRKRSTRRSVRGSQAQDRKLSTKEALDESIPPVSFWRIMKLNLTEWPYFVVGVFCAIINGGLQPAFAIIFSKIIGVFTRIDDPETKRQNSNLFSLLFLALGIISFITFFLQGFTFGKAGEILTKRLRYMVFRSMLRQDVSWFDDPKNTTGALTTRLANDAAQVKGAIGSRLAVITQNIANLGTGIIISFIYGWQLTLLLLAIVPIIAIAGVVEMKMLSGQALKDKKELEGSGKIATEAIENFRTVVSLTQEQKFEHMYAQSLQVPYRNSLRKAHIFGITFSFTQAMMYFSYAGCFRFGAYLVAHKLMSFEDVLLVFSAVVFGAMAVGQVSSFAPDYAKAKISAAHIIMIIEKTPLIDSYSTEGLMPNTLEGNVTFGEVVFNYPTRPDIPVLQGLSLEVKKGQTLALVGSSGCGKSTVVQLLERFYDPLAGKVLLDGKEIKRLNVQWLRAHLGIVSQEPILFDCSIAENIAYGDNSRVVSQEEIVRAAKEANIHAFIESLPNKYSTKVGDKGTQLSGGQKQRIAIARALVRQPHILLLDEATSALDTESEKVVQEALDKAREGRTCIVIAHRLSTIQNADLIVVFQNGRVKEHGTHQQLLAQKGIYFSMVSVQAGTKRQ
T1 sequence (Q92887 whole entry): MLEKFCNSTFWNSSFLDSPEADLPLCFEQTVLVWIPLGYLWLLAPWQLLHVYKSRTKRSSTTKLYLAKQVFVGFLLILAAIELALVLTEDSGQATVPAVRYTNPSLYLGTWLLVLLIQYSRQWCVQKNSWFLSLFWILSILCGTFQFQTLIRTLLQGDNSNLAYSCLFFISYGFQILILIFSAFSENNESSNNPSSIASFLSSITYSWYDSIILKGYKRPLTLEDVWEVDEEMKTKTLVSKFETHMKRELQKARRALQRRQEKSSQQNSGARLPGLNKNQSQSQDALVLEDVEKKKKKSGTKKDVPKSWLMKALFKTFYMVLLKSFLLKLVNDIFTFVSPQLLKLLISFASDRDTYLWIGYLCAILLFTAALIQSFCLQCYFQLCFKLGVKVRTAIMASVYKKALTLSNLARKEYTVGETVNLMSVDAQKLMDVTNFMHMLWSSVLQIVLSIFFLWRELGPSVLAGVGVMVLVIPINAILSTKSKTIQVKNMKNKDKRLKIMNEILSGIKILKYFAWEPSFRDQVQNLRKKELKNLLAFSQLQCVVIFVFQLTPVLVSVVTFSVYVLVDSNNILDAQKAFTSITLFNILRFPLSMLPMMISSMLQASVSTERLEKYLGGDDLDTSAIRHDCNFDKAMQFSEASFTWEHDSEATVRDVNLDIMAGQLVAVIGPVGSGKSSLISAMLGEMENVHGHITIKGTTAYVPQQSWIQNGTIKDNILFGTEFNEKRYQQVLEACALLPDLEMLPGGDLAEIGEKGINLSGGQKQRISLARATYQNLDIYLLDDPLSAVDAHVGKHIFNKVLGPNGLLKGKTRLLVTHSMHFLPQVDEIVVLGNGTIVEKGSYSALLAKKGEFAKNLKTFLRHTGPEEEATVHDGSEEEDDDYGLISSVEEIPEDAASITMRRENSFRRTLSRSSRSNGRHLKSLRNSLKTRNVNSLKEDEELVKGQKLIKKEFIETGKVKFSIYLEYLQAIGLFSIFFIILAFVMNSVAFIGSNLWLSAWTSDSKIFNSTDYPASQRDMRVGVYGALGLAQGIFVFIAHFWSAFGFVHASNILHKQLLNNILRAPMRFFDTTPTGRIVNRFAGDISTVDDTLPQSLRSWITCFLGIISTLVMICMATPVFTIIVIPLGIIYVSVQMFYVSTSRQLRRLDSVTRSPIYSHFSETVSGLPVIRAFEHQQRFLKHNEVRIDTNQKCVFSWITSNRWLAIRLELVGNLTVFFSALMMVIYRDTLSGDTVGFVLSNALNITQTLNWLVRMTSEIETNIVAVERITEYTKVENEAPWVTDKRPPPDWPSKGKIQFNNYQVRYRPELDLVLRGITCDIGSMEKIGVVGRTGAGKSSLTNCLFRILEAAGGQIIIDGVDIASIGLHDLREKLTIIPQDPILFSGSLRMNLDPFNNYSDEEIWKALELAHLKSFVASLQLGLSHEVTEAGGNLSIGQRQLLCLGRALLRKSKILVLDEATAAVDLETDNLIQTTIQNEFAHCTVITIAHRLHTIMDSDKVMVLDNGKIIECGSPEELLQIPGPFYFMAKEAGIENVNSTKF

Row | Compound | Excretion into the inner cavity of the present evaluation model (microscopy) (MRP2) | Incorporation into the inner cavity of the culture (microscopy) (P-glycoprotein (P-gp) [1]) | Excretion into the inner cavity of the present evaluation model (microscopy) (P-glycoprotein (P-gp) [2]) | Proportion transported into present evaluation model (P-glycoprotein (P-gp) [3]; calculated from concentration and amount in inner cavity and concentration in culture solution) [%] | Amount of Rho123 in present evaluation model (P-glycoprotein (P-gp) [3]; methanol extraction, LC/MS) [nmol] | Concentration of Rho123 in present evaluation model (P-glycoprotein (P-gp) [3]; methanol extraction, LC/MS) [nM]
1 | carboxydichlorofluorescein diacetate [CDFDA] | excreted into the inner cavity of the present evaluation model |  |  |  |  | 
2 | COC(=O)c1ccccc1-c1c2ccc(=N)cc-2oc2cc(N)ccc12.Cl [Rho123] |  | incorporation of Rho123 into the inner cavity of the culture was confirmed | excreted into the inner cavity of the present evaluation model | 1.23 | 0.123 | 615.4
